From patent US20250276029A1, “ANTIBACTERIAL AND ANTIOXIDANT COMPOSITION CONTAINING GRAPE CALLUS CULTURE MEDIUM AS ACTIVE INGREDIENT” (INGR INCORPORATED, priority 2021, published 2025)

How the values were obtained:
[1] = test system: MNT-1 (human melanoma cell); assay: MTT assay cytotoxicity, MNT-1 cells; assay type: cell-based; conditions: 24 h
Procedure: (§1) MTT assay was performed using MNT-1, Raw264.7 cells to confirm the cytotoxicity of grape callus cultures, epsilon-Viniferin and delta-Viniferin. Specifically, Raw264.7 (murine macrophage) was incubated at 37° C., 5% CO2 in DMEM (High glucose) medium with 10% FBS and 1% gentamicine added, and MNT-1 (human melanoma cell) was incubated at 37° C., 5% CO2 in DMEM/MEM (High glucose) medium with 20% FBS and 1% gentamicine added. MNT-1 (10^4 cell/well) and Raw264.7 (2×10^4 cell/well) were each incubated in 96 wells, the samples were diluted with medium and treated in each well. After 24 hours, the MTT solution was treated at a concentration of 100 μg/mL and reacted at 37° C., 5% CO2 incubator for 1 hour. All cultures were then removed, 100 μl of acid-isopropanol was added to each well, and absorbance was measured with an ELISA reader at 570 nm. In addition, the sample was diluted based on epsilon-Viniferin content and treated in a well for comparison with Viniferin.

[2] = test system: Raw264.7 (murine macrophage); assay: MTT assay cytotoxicity, Raw264.7 cells; assay type: cell-based; conditions: mouse, 24 h
Procedure: as §1

[3] = DPPH analysis (antioxidant effect); conditions: 500 μg/ml
Procedure: DPPH analysis was performed to confirm the antioxidant effect of grape callus culture solution. Specifically, 0.2 mM DPPH (1,1-Diphenyl-2-picryhydrazyl) solution was prepared using 80% methanol, and then 180 μl of DPPH and 20 μl of the sample were well mixed and reacted at room temperature for 10 minutes, and then absorbance was measured with an ELISA reader at 517 nm. On the other hand, the sample was diluted based on epsilon-Viniferin content and treated in a well for comparison with Viniferin. In addition, the control method used DPPH reagent in the dilution solvent of the sample instead of the sample. Ascorbic acid was treated as a positive control.

[4] = test system: P. acnes 3320 (KCTC 3320); assay: MIC for acne bacteria, P. acnes 3320; assay type: cell-based, Propionibacterium acnes; conditions: P. acnes 3320, 72 hours, anaerobic
Procedure: (§2) To confirm the antibacterial effect of grape callus culture solution on acne bacteria, Propionibacterium acnes (KCTC 3314, KCTC 3320, KCTC 5012) was cultured in RCM (Reinforced Clostridial Medium) at 37° C., anaerobic conditions. MIC is an index for measuring bacteriostatic characteristics of antibacterial substances, and after diluting the grape callus culture solution of the present invention to a concentration between […], the minimum concentration that inhibits the growth of three kinds of P. acnes was examined. Specifically, three kinds of P. acnes cultured in <3-1> were incubated in an incubator at 37° C. for 72 hours under anaerobic conditions in 5 ml of RCM liquid medium. In addition, a master plate was prepared at 8 concentrations by diluting ½ from the highest concentration to DW in 96 well plates. 50 μl of each diluted sample was then transferred to another 96-well plate. […] To measure the MIC, 0 hour OD600 nm was measured with a Microplate Reader. Then, after incubating the 96-well plate in 72-hour 37° C., incubation under anaerobic conditions, measuring OD600 nm for 72 hours with a Microplate Reader, subtracting the 0-hour OD value from the 72-hour OD value, the growth of three P. acnes according to control and sample concentration was compared, and antibacterial activity was confirmed through OD value comparison.

[5] = test system: P. acnes 3314 (KCTC 3314); assay: MIC for acne bacteria, P. acnes 3314; assay type: cell-based, Propionibacterium acnes; conditions: P. acnes 3314, 72 hours, anaerobic
Procedure: as §2

[6] = test system: P. acnes 5012 (KCTC 5012); assay: MIC for acne bacteria, P. acnes 5012; assay type: cell-based, Propionibacterium acnes; conditions: P. acnes 5012, 72 hours, anaerobic
Procedure: as §2

[7] = test system: P. acnes 3320 (KCTC 3320); assay: MBC analysis for acne bacteria, P. acnes 3320; assay type: cell-based, Propionibacterium acnes; conditions: for MBC, concentration of highest growth inhibition effect: P. acnes 3320, 72-hour; for MBC, concentration of highest growth inhibitory effect: P. acnes 3320, 48 hr
Procedure: (§3) To confirm the antibacterial effect of grape callus culture solution on acne bacteria, Propionibacterium acnes (KCTC 3314, KCTC 3320, KCTC 5012) was cultured in RCM (Reinforced Clostridial Medium) at 37° C., anaerobic conditions. The Minimum Bactericidal Concentration (MBC) is an indicator measuring the bactericidal properties of an antibacterial substance, and the grape callus culture extract of the present invention was diluted to concentrations ranging […], and the minimum concentration inhibiting the growth of three strains of P. acnes was determined. Specifically, the minimum bactericidal concentration was measured using a plate measuring the MIC of <3-1>.

[8] = test system: P. acnes 3314 (KCTC 3314); assay: MBC analysis for acne bacteria, P. acnes 3314; assay type: cell-based, Propionibacterium acnes; conditions: for MBC, concentration of highest growth inhibition effect: P. acnes 3314, 72-hour; for MBC, concentration of highest growth inhibitory effect: P. acnes 3314, 48 hr
Procedure: as §3

[9] = test system: P. acnes 5012 (KCTC 5012); assay: MBC analysis for acne bacteria, P. acnes 5012; assay type: cell-based, Propionibacterium acnes; conditions: for MBC, concentration of highest growth inhibition effect: P. acnes 5012, 72-hour; for MBC, concentration of highest growth inhibitory effect: P. acnes 5012, 48 hr
Procedure: as §3

[10] = test system: P. acnes 3320; assay: Disc diffusion test; assay type: cell-based, Propionibacterium acnes; conditions: for clear zone diameter, 1: column 1; for clear zone diameter, 2: column 2
Procedure: The disc diffusion test is an antibacterial agent sensitivity test method of bacteria, and if there is an antibacterial effect, a clear zone is formed around the disk paper, and the antibacterial ability can be measured through the degree of clear zone formation. Specifically, P. acnes 3320 was incubated in 5 ml of RCM liquid medium in an incubator at 37° C. for 72 hours under anaerobic conditions. Then, the bacteria diluted with 5×10^5 1×10^6 were moistened with a cotton swab and evenly smeared on RCM agar medium. The disk paper was placed on an agar plate, the disk paper was moistened with a sample of the stock solution, and then incubated in a 72-hour 37° C. incubator under anaerobic conditions, and then the clear zone size was measured using a Vernier Caliper.

Structure (SMILES)	concentration showing no cytotoxicity (MTT) [1] [µg/mL]	concentration showing no cytotoxicity (MTT) [2] [µg/mL]	radical scavenging activity (DPPH) compared to the control group [3]	MIC, average concentration that inhibits growth [4]	MIC, average concentration that inhibits growth [5]	MIC, average concentration that inhibits growth [6]	MBC, concentration of highest growth inhibition effect [7]	MBC, concentration of highest growth inhibitory effect [7]	MBC, concentration of highest growth inhibition effect [8]	MBC, concentration of highest growth inhibitory effect [8]	MBC, concentration of highest growth inhibition effect [9]	MBC, concentration of highest growth inhibitory effect [9]	clear zone diameter, Average ([10]; ε-viniferin 5 μg) [mm]	clear zone diameter, 1 ([10]; ε-viniferin 5 μg) [mm]	clear zone diameter, 2 ([10]; ε-viniferin 5 μg) [mm]	clear zone diameter, Average ([10]; ε-viniferin 10 μg) [mm]	clear zone diameter, 1 ([10]; ε-viniferin 10 μg) [mm]	clear zone diameter, 2 ([10]; ε-viniferin 10 μg) [mm]
Oc1ccc(/C=C/c2cc(O)cc3c2C(c2cc(O)cc(O)c2)C(c2ccc(O)cc2)O3)cc1 (stereo not drawn) [epsilon-Viniferin, trans-ε-viniferin]	≤ 20	≤ 20	approximately 25%	did not show growth inhibition	did not show growth inhibition	did not show growth inhibition	did not show growth inhibition	did not show growth inhibition	did not show growth inhibition	did not show growth inhibition	did not show growth inhibition	did not show growth inhibition	0	0	0	0	0	0
Oc1ccc(C2Oc3ccc(/C=C/c4cc(O)cc(O)c4)cc3C2c2cc(O)cc(O)c2)cc1 (stereo not drawn) [delta-Viniferin, trans-δ-Viniferin]			approximately 25%	did not show growth inhibition	did not show growth inhibition	did not show growth inhibition	did not show growth inhibition	did not show growth inhibition	did not show growth inhibition	did not show growth inhibition	did not show growth inhibition	did not show growth inhibition						
